Results published in patent US6541508B2, “Taxane prodrugs” (Nobex Corporation, priority 1999, dated 2003).
Like-named read-outs stand apart in the source and are kept apart here.

Columns and labels:
[1] = system: A121 ovarian carcinoma cell line; experiment: Cell growth inhibition, sulforhodamine B (SRB) assay, A121; format: cell-based, human; conditions: 72-96 h, read-out: IC50 nM (±S.E.) A121
Protocol: (§1) Cell lines were propagated as monolayers in RPMI-1640 containing 5% FCS, 5% NuSerum IV, 20 mM HEPES, 2 mM L-glutamine at 37° C. in a 5% CO2 humidified atmosphere.
(§2) Paclitaxel was solubilized in 100% DMSO. TX-001 and 002 were solubilized in sterile H2O acidified with 10% 1 N HCl. For the first experiment, 4.0 mM stocks of TX-001 and 002 were prepared. Solutions of TX-001 and TX-002 contained clear needle-like and cast-like precipitates and were fairly viscous (Experiment 1). For the second experiment (Experiment 2), less concentrated stock solutions (0.4 mM) of each compound were prepared in sterile H2O acidified with 10% 1 N HCl. The same type of precipitates were noted, however neither solution was viscous. All compounds were further diluted in RPMI-1640 containing 10 mM HEPES.
(§3) Assessment of cell growth inhibition was determined in 96 well microtiter plates according to the method of Skehan et al., “New Colorimetric Cytotoxicity Assay for Anticancer-Drug Screening, Articles 82(13):1107-1112 (1990). Briefly, cells were plated with 400-1800 cells/well in 96 well plates and incubated at 37° C. 15-18 hr prior to drug addition to allow for cell attachment. Each cell line was exposed to 12 concentrations of compound (a 6 log range), 5 replicate data points per compound concentration. […] Assays were terminated with 100 μl of ice-cold 50% TCA. […] Optical density was measured at 570 nm. […]

[2] = system: MDA435/LCC6-WT breast carcinoma cell line; experiment: Cell growth inhibition, SRB assay, LCC6-WT; format: cell-based, human; conditions: read-out: IC50 nM (±S.E.) LCC6-WT
Protocol: as §1, §2
Assessment of cell growth inhibition was determined in 96 well microtiter plates according to the method of Skehan et al., “New Colorimetric Cytotoxicity Assay for Anticancer-Drug Screening, Articles 82(13):1107-1112 (1990). Briefly, cells were plated with 400-1800 cells/well in 96 well plates and incubated at 37° C. 15-18 hr prior to drug addition to allow for cell attachment. Each cell line was exposed to 12 concentrations of compound (a 6 log range), 5 replicate data points per compound concentration. […] Assays were terminated with 100 μl of ice-cold 50% TCA. After 1 hr at 4° C., plates were washed 5 times with tap water to remove TCA, low-molecular-weight metabolites and serum proteins. 50 μl of 0.4% sulforhodamine B (SRB) was added to each well. Following a five minute incubation at room temperature, plates were rinsed 5 times with 0.1% acetic acid and air dried. Bound dye was solubilized with 10 mM Tris Base (pH 10.5) for 5 min on a gyratory shaker. Optical density was measured at 570 nm. […]

[3] = system: HT-1080 fibrosarcoma cell line; experiment: Cell growth inhibition, SRB assay, HT-1080; format: cell-based, human; conditions: 72-96 h, read-out: IC50 nM (±S.E.) HT-1080
Protocol: as §1, §2, §3

[4] = system: HT-1080/DR4 doxorubicin selected MDR (MRP/LRP phenotype) fibrosarcoma cell line; experiment: Cell growth inhibition, SRB assay, HT-1080-DR4; format: cell-based, human; conditions: for IC50: 72-96 h, read-out: IC50 nM (±S.E.) HT-1080-DR4; for Resistance ratio (IC50 resistant cell line/IC50 parental line): MRP/LRP expressing HT1080/DR4 vs HT-1080
Protocol: as §1, §2
Assessment of cell growth inhibition was determined in 96 well microtiter plates according to the method of Skehan et al., “New Colorimetric Cytotoxicity Assay for Anticancer-Drug Screening, Articles 82(13):1107-1112 (1990). Briefly, cells were plated with 400-1800 cells/well in 96 well plates and incubated at 37° C. 15-18 hr prior to drug addition to allow for cell attachment. Each cell line was exposed to 12 concentrations of compound (a 6 log range), 5 replicate data points per compound concentration. […] Assays were terminated with 100 μl of ice-cold 50% TCA. After 1 hr at 4° C., plates were washed 5 times with tap water to remove TCA, low-molecular-weight metabolites and serum proteins. 50 μl of 0.4% sulforhodamine B (SRB) was added to each well. Following a five minute incubation at room temperature, plates were rinsed 5 times with 0.1% acetic acid and air dried. Bound dye was solubilized with 10 mM Tris Base (pH 10.5) for 5 min on a gyratory shaker. Optical density was measured at 570 nm.
Data were fit with the Sigmoid-Emax concentration-effect model (N. H. G. Holford and L. B. Scheiner, “Understanding the dose-effect relationship: Clinical applications of pharmacokinetic-pharmacodynamic models,” Clin. Pharmacokin. 6:429-453 (1981)) with nonlinear regression, weighted by the reciprocal of the square of the predicted response.

[5] = system: paclitaxel-resistant cells; conditions: cited from earlier work
[6] = system: LCC6-MDR1 Pgp transfected breast carcinoma cell line; experiment: Cell growth inhibition, SRB assay, LCC6-MDR; conditions: LCC6-MDR1 variant line overexpressing Pgp vs LCC6-WT
Protocol: as §1, §2, §3

[7] = Stability of trifluoroacetate product fraction solutions on storage; format: physicochemical; conditions: preparative HPLC fraction solutions, initially 98.8% average purity; 8° C. for 16 days; analytical HPLC
tubulin = conditions: cited from earlier work
[8] = Experiment 1, TX-001/TX-002 from 4.0 mM stocks
[9] = Experiment 2, TX-001/TX-002 from 0.4 mM stocks

## 2′-Succinamidyl-PEG2-amine-paclitaxel Acetate [Compound 4]
[1]; [8]
  IC50: 13 ± 0.5 nM
[1]; [9]
  IC50: 37 ± 1.2 nM
[2]; 4.0 mM stock solutions stored at 4° C. for 7 days
  IC50: 2.7 ± 0.4 nM
[2]; Experiment 1, TX-001/TX-002 from 4.0 mM stocks, 72-96 h
  IC50: 4.9 ± 0.5 nM
[2]; Experiment 2, TX-001/TX-002 from 0.4 mM stocks, 72-96 h
  IC50: 13 ± 0.5 nM
[3]; [8]
  IC50: 4.5 ± 0.4 nM
[3]; [9]
  IC50: 19 ± 0.7 nM
[4]; [8]
  IC50: 8.9 ± 0.4 nM
[4]; [9]
  IC50: 36 ± 1.5 nM

## CC(=O)O[C@@]12CO[C@@H]1C[C@H](O)[C@@]1(C)C(=O)[C@H](O)C3=C(C)[C@@H](OC(=O)[C@H](O)[C@@H](NC(=O)OC(C)(C)C)c4ccccc4)C[C@@](O)([C@@H](OC(=O)c4ccccc4)[C@H]21)C3(C)C [Docetaxel, docetaxel]
[5]
  activity relative to paclitaxel: about five times as active as paclitaxel

## CC(=O)O[C@H]1C(=O)[C@@]2(C)[C@H]([C@H](OC(=O)c3ccccc3)[C@]3(O)C[C@H](OC(=O)[C@H](O)[C@@H](NC(=O)c4ccccc4)c4ccccc4)C(C)=C1C3(C)C)[C@]1(OC(C)=O)CO[C@@H]1C[C@@H]2O [Paclitaxel, reference compound]
[4]
  Resistance ratio (IC50 resistant cell line/IC50 parental line): 1.1-1.4 fold
[6]
  Resistance ratio (IC50 resistant cell line/IC50 parental line): 65-92 fold

## 2′-Succinamidyl-PEG2-amine-paclitaxel Trifluoroacetate [Compound 3]
[7]
  average purity after storage: 97.4%

## CC(=O)O.CC(=O)OC1C(=O)C2(C)C(O)CC3OCC3(OC(C)=O)C2C(OC(=O)c2ccccc2)C2(O)CC(OC(=O)C(OC(=O)CCCC(=O)NCCOCCOCCN)C(NC(=O)c3ccccc3)c3ccccc3)C(C)=C1C2(C)C (stereo not shown) [Compound 5, 2′-Glutaramidyl-PEG2-amine-paclitaxel acetate]
[4]
  Resistance ratio (IC50 resistant cell line/IC50 parental line): 1.1-1.5 fold
[6]
  Resistance ratio (IC50 resistant cell line/IC50 parental line): 47-60 fold

## A-nor-paclitaxel
tubulin
  tubulin-assembly activity relative to paclitaxel: only three times less than that of paclitaxel
